Laboratory results taken from patent US4442098A, “Pentacyclic derivatives of piperazine” (Beecham Group Limited, priority 1980, dated 1984).
Like-named read-outs stand apart in the source and are kept apart here.

Tested on: central 5HT
Experiment: inhibition of behavioural symptoms (forepaw tapping, head jerks, splayed limbs) induced by 5-methoxy-N,N-dimethyltryptamine in mice
Assay type: in vivo, mice (male CD-1 Charles Rine)
Settings: 1 h pretreatment, 10 mg/kg ip 5-methoxy-N,N-dimethyltryptamine; for ED50: Mus musculus, 1 h, read-out: ED50 (dose of compound inhibiting the symptoms by 50%)
Method: Mice (.male. CD^-1 Charles Rine) are pretreated with the compounds 10 animals/group under investigation and 1 h later one group is injected with 10 mg/kg ip 5-methoxy-N,N-dimethyltryptamine (Sigma). The symptoms of forepaw tapping movements, head jerks and splayed limbs are scored: 1, present; 0, absent, giving a maximum score of 3/mouse or 30/group. Results are expressed as the percentage inhibition compared to the group treated with 5-methoxy-N,N-dimethyl tryptamine alone. The dose of compound inhibiting the symptoms by 50% is determined graphically.

SMILES	ED50 (po, p.o.) [mg/kg]	other results
CN1CC2CC(O)c3cccc4c3N2C(C1)c1ccccc1C4 (single isomer, unassigned) [Compound 3, 1,2,3,3a,4,5,9,13b-Octahydro-2-methyl-2-benzazepino[4,3,2-ij]pyrazino[1,2-a]quinolin-5-ol]	0.65	
CN1CC2CC(O)c3cccc4c3N2C(C1)c1ccccc1C4 (single isomer, unassigned) [Compound 4, 1,2,3,3a,4,5,9,13b-Octahydro-2-methyl-2-benzazepino[4,3,2-ij]pyrazino[1,2-a]quinolin-5-ol]		ED50 (ip, i.p.): 0.3 mg/kg
CN1CC2CC(=O)c3cccc4c3N2C(C1)c1ccccc1C4 (stereo not shown) [Compound 1, 1,2,3,3a,4,5,9,13b-Octahydro-2-methyl-2-benzazepino[4,3,2-ij]pyrazino[1,2-a]quinolin-5-one]	12	
CN1CC2CCc3cccc4c3N2C(C1)c1ccccc1C4 (stereo not shown) [Compound 6, 1,2,3,3a,4,5,9,13b Octahydro-2-methyl-2-benzazepino[4,3,2-ij]pyrazino[1,2-a]quinoline]	10	
CN1CC2CCc3cccc4c3N2C(C1)c1ccccc1C4 (stereo not shown) [Compound 7, 1,2,3,3a,4,5,9,13b-octahydro-2-methyl-2-benzazepino[4,3,2-ij]pyrazino[1,2-a]quinoline]		ED50 (dose of compound inhibiting the symptoms by 50%) (p.o., 60 min): 13 mg/kg
CN1CC2CC(=NO)c3cccc4c3N2C(C1)c1ccccc1C4 (stereo not shown) [Compound 8, 1,2,3,3a,4,5,9,13b-octahydro-2-methyl-2-benzazepino[4,3,2-ij]-pyrazino[1,2-a]-5-oxaminoquinoline]	3	
CN1CC2CC(=O)c3cccc4c3N2C(C1)c1ccccc1O4 (stereo not shown) [Compound 16, 2-methyl,1,3,4,14b-tetrahydro 4,6-ethano-2H-dibenzo[bf]pyrazino[1,2-d][1,4]oxazepin-15-one]	10	
